Measured values from patent US12070477B2, “Lactobacillus sp. strain having ability to inhibit growth of vaginal pathogenic microorganisms” (KoBioLabs, Inc., priority 2015, dated 2024).

Tested on: Gardnerella vaginalis
Assay: Gardnerella vaginalis-infected mouse vaginitis model, microbiome analysis after vaginal administration
Assay type: in vivo, female mice (BALB/c mice)
Experimental: The hormone control and estrous cycle were induced by intraperitoneally injecting 0.5 mg of beta-esteradiol 3-benzonate to female mice (BALB/c mice). After three days, they were directly infected with Gardnerella vaginalis in the vagina at a concentration of 1×10^7 CFU per mouse to establish a vaginitis animal model. Thereafter, four kinds of Lactobacillus isolates corresponding to 10^8 to 10^9 CFU per mouse were vaginally administered (7 mice per group). On day 2, the total bacterial DNA was extracted from the vaginal samples washed with 0.1 mL of PBS (Phosphate Buffered Saline) and microbiome community analysis was performed to measure the relative abundance of Gardnerella vaginalis and other vaginal microbiota. […] The analyzed sequences were subjected to microbiome analysis including taxon profile, α-diversity and β-diversity showing the difference in community structure between groups through Qiime pipeline, and the change in the amount of Gardnerella vaginalis pathogens upon the administration of Lactobacillus isolates was evaluated by calculating relative abundances (/% GV treatment group).

Cc1ncc([N+](=O)[O-])n1CCO [MTZ, metronidazole]
community structure of the vaginal microflora (Unweighted UniFrac distance) (compared to Gardnerella vaginalis-infected control group, after 2 days of administration): no change in the community structure | Relative abundance (/% GV group) of Gardnerella vaginalis (vaginal administration after infection, day 2, 16S microbiome analysis, GV group = 100): 74.9 /% GV group
